The values that follow are results of earlier work, collected in US5955321A, “Production and use of compositions comprising high concentrations of vitamin B12 activity” (Gist-Brocades, priority 1996, dated 1999).

For this series the following is noted: for stability to light: in isolated form.

For 5'desoxyadenosylcobalamin, the “stability in aqueous solution” value is recorded as “easily transformed to hydroxocobalamin” and the stability to light entry is on record as “unstable to light”.

For `C/C1=C2/[N-][C@H]([C@H](CC(N)=O)[C@@]2(C)CCC(=O)NC[C@@H](C)OP(=O)([O-])O[C@H]2[C@@H](O)[C@@H](n3cnc4cc(C)c(C)cc43)O[C@@H]2CO)[C@]2(C)N=C(/C(C)=C3N=C(/C=C4N=C1[C@@H](CCC(N)=O)C\4(C)C)[C@@H](CCC(N)=O)[C@]\3(C)CC(N)=O)[C@@H](CCC(N)=O)[C@]2(C)CC(N)=O.[CH3-].[Co+3]` [methylcobalamin], the “stability in aqueous solution” value is recorded as “easily transformed to hydroxocobalamin” and the stability to light result was “unstable to light”.
